# Reference: US20070049611A1, “Phosphodiesterase 4 inhibitors” (priority 2005, published 2007)
# Columns and labels:
# rats [1] = assay: Radial arm maze task in rats, an in vivo test for learning and memory; conditions: rat, MK-801 0.1 mg/kg i.p., p<0.01
# Protocol: The test was performed as previously described (Zhang, H.-T., Crissman, A. M., Dorairaj, N. R., Chandler, L. J., and O'Donnell, J. M., Neuropsychopharmacology, 2000, 23, 198-204.). Five days after initial housing, rats (male Spraque-Dawley (Harlan) weighing 250 to 350 g) were placed in the eight-arm radial maze (each arm was 60×10×12 cm high; the maze was elevated 70 cm above the floor) for acclimation for two days. Rats were then placed individually in the center of the maze for 5 minutes with food pellets placed close to the food wells, and then, the next day, in the wells at the end of the arms; 2 sessions a day were conducted. Next, four randomly selected arms were then baited with one pellet of food each. The rat was restricted to the center platform (26 cm in diameter) for 15 seconds and then allowed to move freely throughout the maze until it collected all pellets of food or 10 minutes passed, whichever came first.
# Four parameters were recorded: 1) working memory errors, i.e., entries into baited arms that had already been visited during the same trial; 2) reference memory errors, i.e., entries into unbaited arms; 3) total arm entries; and 4) the test duration (seconds), i.e., the time spent in the collection of all the pellets in the maze. […]
# (§1) All data were analyzed by analyses of variance (ANOVA); individual comparisons were made using Kewman-Keuls tests. […]
# rats [2] = assay: Passive avoidance in rats, an in vivo test for learning and memory; conditions: rat, MK-801 0.1 mg/kg, 24 hours after electric shock, p<0.001
# Protocol: The test was performed as previously described (Zhang, H.-T., Crissman, A. M., Dorairaj, N. R., Chandler, L. J., and O'Donnell, J. M., Neuropsychopharmacology, 2000, 23, 198-204.). The apparatus (Model E10-16SC, Coulboum Instruments, Allentown, Pa.) consisted of a two-compartment chamber with an illuminated compartment connected to a darkened compartment by a guillotine door. The floor of the darkened compartment consisted of stainless steel rods through which an electric foot-shock could be delivered from a constant current source. All experimental groups were first habituated to the apparatus the day before the start of the experiment. During the training, the rat (Male Spraque-Dawley (Harlan) weighing 250 to 350 g) was placed in the illuminated compartment facing away from the closed guillotine door for 1 minute before the door was raised. The latency for entering the darkened compartment was recorded. After the rat entered the darkened compartment, the door was closed and a 0.5 mA electric shock was administered for 3 seconds. […] The latency for entering the darkened compartment was recorded for up to 180 seconds, at which time the trial was terminated.
# as §1
smiles,measurement,setting,value
C[C@]12N[C@H](Cc3ccccc31)c1ccccc12 [MK-801],frequencies of working and reference memory errors compared to control,rats [1],increased the frequencies of both working and reference memory errors
same,latency for entering the darkened compartment compared to the vehicle,rats [2],markedly reduced this latency
